Measurements reported in patent publication US20260356817A1, “AMINOPYRIMIDINE AND AMINOTRIAZINE DERIVATIVES AS MYC PROTEIN MODULATORS” (Sanford Burnham Prebys Medical Discovery Institute, priority 2022, published 2026).
Where two headings read alike, the source gives them in different places.

Tests used:
Myc [1] = assay: Myc inhibition assay: Myc expression per cell by anti-Myc immunofluorescence, high-content imaging; type: cell-based, human (patient-derived medulloblastoma xenograft cells)
In short: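 IC50 comes from high-content imaging of per-cell Myc immunostaining (DAPI-labelled nuclei) after 4 h compound exposure. Cells were freshly dissociated medulloblastoma PDX tumours, never passaged in vitro, grown in NSG mouse cerebellum, plated serum-free and recovered overnight before treatment.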

[2] = test system: retinoblastoma (Rb) protein; assay: Rb protein expression in PDX511 medulloblastoma cells (immunofluorescence); type: cell-based, human (patient-derived)
[3] = test system: PDX511 medulloblastoma cells; assay: Cell viability of PDX511 medulloblastoma cells at 4 hours; type: cell-based, human (patient-derived)
Myc [4] = assay: Western blot of Myc in cultured medulloblastoma PDX cells; type: cell-based, human (patient-derived); conditions: 0.18 μM, Western blot (FIG. 4A)
Method: (§1) Medulloblastoma PDX cells were harvested from the brains of tumor-bearing mice, cultured overnight, and then treated with Compound 171 for various amounts of time. Cells cultured for time points of 1 hour, 2 hours, and 4 hours were lysed and subjected to Western blotting with antibodies specific for Myc or GAPDH as control, as shown in FIG. 4A. Cells cultured for longer time points of 48 hours and 96 hours were assayed for viability using the CellTiter Glo assay, as shown in FIG. 4B and FIG. 4C.

[5] = test system: medulloblastoma PDX cells; assay: CellTiter Glo viability of medulloblastoma PDX cells; type: cell-based, human (patient-derived); conditions: 0.18 μM
Method: as §1

Myc [6] = assay: Western blot of Myc in THP-1 cells (acute monocytic leukemia); type: cell-based; conditions: 0.18 μM and 1.0 μM, 4 hours, Western blot (FIG. 5A)
Method: (§2) Cell lines derived from acute monocytic leukemia, acute promyelocytic leukemia, pancreatic adenocarcinoma and small cell lung cancer were treated with vehicle (DMSO) or the indicated concentrations of Compound 171 for 4 hours, and then lysed and subjected to Western blotting using antibodies specific for Myc or GAPDH as control.

Myc [7] = assay: Western blot of Myc in HL-60 cells (acute promyelocytic leukemia); type: cell-based; conditions: 0.18 μM and 1.0 μM, 4 hours, Western blot (FIG. 5B)
Method: as §2

Myc [8] = assay: Western blot of Myc in BxPC-3 cells (pancreatic adenocarcinoma); type: cell-based; conditions: 0.18 μM and 1.0 μM, 4 hours, Western blot (FIG. 5C)
Method: as §2

Myc [9] = assay: Western blot of Myc in H-82 cells (small cell lung cancer); type: cell-based; conditions: 0.18 μM and 1.0 μM, 4 hours, Western blot (FIG. 5D)
Method: as §2

[10] = Plasma and brain concentrations in NSG mice after oral administration (LCMS); type: in vivo, mice (non-tumor-bearing NSG); conditions: 100 mg/kg oral
Method: Non-tumor-bearing NOD-SCID-IL2Rgamma knockout (NSG) mice were treated with Compound 171 at 100 mg/kg via oral administration. Blood was collected retro-orbitally or by cardiac puncture for measuring compound concentrations. For measurements of compound concentration in the brain, animals were sacrificed, and brain tissue was harvested and homogenized. Compound concentration was determined by liquid chromatography-mass spectrometry (LCMS).

Myc [11] = assay: Myc levels in intracranial medulloblastoma PDX tumors in mice after oral administration (Western blot); type: in vivo, NSG mice transplanted with medulloblastoma PDX cells
Method: NSG mice transplanted with medulloblastoma PDX cells were treated by oral administration with either vehicle (10% DMSO, 10% Tween 80) or Compound 171 (100 mg/kg). After 5.5 hours, animals were sacrificed, and tumors were harvested, dissociated, lysed and subjected to Western blotting with antibodies specific for Myc or GAPDH as control.

[12] = Table 1, medulloblastoma PDX cells, 4 h, read-out: IC50 (Myc inhibition)
[13] = Table 2, medulloblastoma PDX cells, 4 h, read-out: MYC Inhibition IC50

SMILES | IC50 (Myc [1]; [12]) | IC50 (Myc [1]; [13]) | also measured
Fc1cccc(Nc2nccc(-c3ccn4nccc4n3)n2)c1 [Compound 270, N-(3-fluorophenyl)-4-(pyrazolo[1,5-a]pyrimidin-5-yl)pyrimidin-2-amine] | 1000 to 10000 nM | 1000 to 10000 nM | 
Cc1cc(Cl)cc(Nc2nccc(-c3ccc4nc[nH]c4c3)n2)c1 [Compound 274, 4-(1H-benzo[d]imidazol-6-yl)-N-(3-chloro-5-methylphenyl)pyrimidin-2-amine] | < 200 nM | < 200 nM | 
CC(C)(C)n1cc(Nc2nccc(-c3ccc4nc[nH]c4c3)n2)cn1 [Compound 276, 4-(1H-benzo[d]imidazol-6-yl)-N-(1-(tert-butyl)-1H-pyrazol-4-yl)pyrimidin-2-amine] | 200 to 1000 nM | 200 to 1000 nM | 
FC(F)c1cccc(Nc2nccc(-c3ccc4nc[nH]c4c3)n2)c1 [Compound 280, 4-(1H-benzo[d]imidazol-5-yl)-N-(3-(difluoromethyl)phenyl)pyrimidin-2-amine] | < 200 nM | < 200 nM | 
FC(F)(F)c1cccc(Nc2cc(-c3ccc4nc[nH]c4c3)ccn2)n1 [Compound 281, N-(4-(1H-benzo[d]imidazol-6-yl)pyridin-2-yl)-6-(trifluoromethyl)pyridin-2-amine] | < 200 nM | < 200 nM | 
COc1ccc(Nc2nccc(-c3ccncc3)n2)cc1 [Compound A] |  |  | IC50 (Myc [1]; read-out: Myc expression inhibition IC50, PDX511 medulloblastoma cells, 4 h (FIG. 2A)): 11700 nM; effect on expression of the retinoblastoma (Rb) protein [2]: no effect; effect on cell viability [3]: no effect

The next lines start with results.

IC50 (Myc [1]; [12]) | IC50 (Myc [1]; [13]) | SMILES | also measured
< 200 nM | < 200 nM | FC(F)(F)c1cccc(Nc2nccc(-c3ccc4nc[nH]c4c3)n2)c1 [Compound 171, 4-(1H-Benzo[d]imidazol-6-yl)-N-(3-(trifluoromethyl)phenyl)pyrimidin-2-amine 2HCl] | Myc expression inhibition (in words) (Myc [1]; PDX511 medulloblastoma cells (FIG. 3A)): Myc expression inhibition; effect on expression of the retinoblastoma (Rb) protein [2]: no effect; effect on cell viability [3]: no effect; inhibition of Myc expression at 2 and 4 hours (Myc [4]; 2 and 4 hours vs 1 hour): greater inhibition; time of first inhibition of Myc expression (Myc [4]): ≤ 1 h; reduction in cell viability by 48 hours ([5]; 48 hours, CellTiter Glo (FIG. 4B)): 80%; reduction in cell viability by 96 hours ([5]; 96 hours, CellTiter Glo (FIG. 4C)): 100%; inhibition of Myc, THP-1 (Myc [6]): substantial inhibition of Myc; inhibition of Myc, HL-60 (Myc [7]): substantial inhibition of Myc; inhibition of Myc, BxPC-3 (Myc [8]): substantial inhibition of Myc; inhibition of Myc, H-82 (Myc [9]): substantial inhibition of Myc; blood-brain-barrier crossing and retention in the brain [10]: ability to cross the blood-brain-barrier with good retention in the brain; time for which brain concentration remained above the IC90 level ([10]; brain): more than 6 hours; time for which plasma concentration remained above the IC90 level ([10]; plasma): more than 6 hours; reduction of Myc levels in intracranial tumors (Myc [11]; 100 mg/kg oral (FIG. 7)): reduction of Myc levels; mice with undetectable Myc expression in intracranial tumors (Myc [11]; 100 mg/kg oral, after more than 5 hours (5.5 hours), Western blot): 3 out of 6
1000 to 10000 nM | 1000 to 10000 nM | Fc1cccc(Nc2nccc(-c3ccc4ocnc4c3)n2)c1 [Compound 271, 4-(benzo[d]oxazol-5-yl)-N-(3-fluorophenyl)pyrimidin-2-amine] | 
200 to 1000 nM | 200 to 1000 nM | CCOC(=O)CCc1cccc(Nc2nccc(-c3ccc4nc[nH]c4c3)n2)c1 [Compound 272, ethyl 3-(3-((4-(1H-benzo[d]imidazol-6-yl)pyrimidin-2-yl)amino)phenyl)propanoate] | 
1000 to 10000 nM | 1000 to 10000 nM | Fc1cccc(Nc2nccc(-c3cnc4nccn4c3)n2)c1 [Compound 273, N-(3-fluorophenyl)-4-(imidazo[1,2-a]pyrimidin-6-yl)pyrimidin-2-amine] | 
< 200 nM | < 200 nM | Nc1cccc(Nc2nccc(-c3ccc4nc[nH]c4c3)n2)c1 [Compound 275, N1-(4-(1H-benzo[d]imidazol-6-yl)pyrimidin-2-yl)benzene-1,3-diamine] | 
< 200 nM |  | CC(C)n1cnc2ccc(-c3ccnc(Nc4cccc(F)c4)n3)cc21 [Compound 277A, N-(3-fluorophenyl)-4-(1-isopropyl-1H-benzo[d]imidazol-6-yl)pyrimidin-2-amine] | 
< 200 nM | < 200 nM | FC(F)c1cccc(Nc2cc(-c3ccc4[nH]cnc4c3)ccn2)n1 [Compound 278, N-(4-(1H-benzo[d]imidazol-5-yl)pyridin-2-yl)-6-(difluoromethyl)pyridin-2-amine] | 
< 200 nM | < 200 nM | Fc1cnc(Nc2cccc(C(F)(F)F)n2)cc1-c1ccc2nc[nH]c2c1 [Compound 279, 4-(1H-benzo[d]imidazol-6-yl)-5-fluoro-N-(6-(trifluoromethyl)pyridin-2-yl)pyridin-2-amine] | 
